US6369066B1, “Substituted 1,3-oxathiolanes with antiviral properties” (BioChem Pharma, Inc., priority 1990, dated 2002)
In brackets after ≈: the same amount, converted by molar mass. Read-outs that look alike come from different tables or passages of the source.

What was measured:
Type in all cases: cell-based
HIV-1 IIIB = test: IC50 in CBMCs with HIV-1 isolate IIIB
Protocol: (§1) In short, viruses (HTLV-IIIB) that had initially been grown on MT-4 cells were passaged onto phytohemaglutinin-prestimulated cord blood mononuclear cells (CBM). For subsequent analysis, samples of CBM (5×10^5 cells per mL) were pretreated with various concentrations of the different compounds for 4 h and were then inoculated with CBL-grown HIV-1 at a multiplicity of infection of 1.0 in the concentration of the compound used for the pretreatment. Fresh medium, including the appropriate concentration of the compound was added three times weekly, and fresh phytohemaglutinin-prestimulated CBM (5×10^5 cells per mL) were added at 2-day intervals. The calculation of IC50 was determined on the basis of RT levels in culture fluids as described in Gao et al., (1992), J. Virol. 66: 12-19.
(§2) Determination of IC50 (μM) in Different Mutated Isolates of HIV-1 in the Presence of Different Antiviral Compounds
(§3) The procedure is similar to the procedure used in the CBM assay, with the exception that constructed virus and construted mutated virus were used.

[1] = system: HIV-1 HXB2D-65 K→R (ddC resistance mutation); test: IC50 in CBMCs with constructed mutated virus HXB2D-65
Protocol: as §1, §2, §3
(§4) The constructed virus HXB2D-65 correspond to the ddC resistance mutation and the constructed virus HXB2D-184 correspond to the 3TC™ and FTC resistance mutation.

[2] = system: HIV-1 HXB2D-184 M→V (3TC™ and FTC resistance mutation); test: IC50 in CBMCs with constructed mutated virus HXB2D-184
Protocol: as §1, §2, §3, §4

HIV-1 HXB2D = test: IC50 in CBMCs with constructed virus HXB2D
Protocol: as §1, §2, §3, §4

CEM = test: Cell culture inhibitory dose (CCID50) in CEM; details: cell counting, trypan blue exclusion, 7 days post drug treatment
Protocol: (§5) Evaluation of Cell Culture Inhibitory Dose (CCID50)
(§6) Cell growth was determined by cell counting and viability by trypan blue exclusion 7 days post drug treatment. CCID50 is expressed as the drug concentration which inhibits 50% of cell growth.

HIV-1 (HTLV-IIIB) = test: CBM assay, IC50 from RT levels in culture fluids; details: Human immunodeficiency virus 1
Protocol: Assays on cord blood mononuclear cells were done substantially as described in Gu et al., J. Virol. (1992), 66:7128-7135.
as §1

HTLV-IIIb = test: HIV-1 acutely infected cell lines, p24 antigen levels; details: p24 antigen at day 6; for ID50 CEM: CEM cells infected with HTLV-IIIb; for ID50 H9: H9 cells infected with HTLV-IIIb; for ID50 Jurkat: Jurkat cells infected with HTLV-IIIb; for ID50 MT-4: MT-4 cells infected with HTLV-IIIb; for ID50 U937: U937 cells infected with HTLV-IIIb
Protocol: Determination of IC50 ([…]) in HIV-1 Acutely Infected Cell Lines in the Presence of Differet Antiviral Compounds
Various cell lines were infected with HTLV-IIIb (TCID50=200) and then cultured with various concentrations of drug. IC50 was determined by measuring p24 antigen levels in the supernatant of cultures at day 6 of infection.

HIV-1 strain RF = test: Formazan (MTT) assay on MT-4 cells, anti-HIV-1 antiviral activity; details: Human immunodeficiency virus 1, MT4, 168 h, MT-4 cells infected with HIV-1 strain RF, 7 days, read-out: IC50 (50% anti-viral dose, ID 50%)
Protocol: Formazan Assay on MT-4 and 3TC™-Resistant Cell Lines
(§7) Anti-HIV-1 antiviral activity was determined in MT-4 calls and MT-4 cells that have been made resistant to 3TC™. A suspension of cells (approximately 10^6 cells/ml) in RPMI 1640 growth medium was infected with HIV-1 strain RF at a M.O.I. of 10^−3 infectious units/cell. An uninfected cell suspension was prepared in parallel to evaluate drug-induced cytotoxicity. The two suspensions were incubated for 90 minutes at room temperature. Test compounds were serially diluted in 10-fold decrements from 100 μg/ml to 0.01 μg/ml (final concentrations in two 96 well microtitre plates. 20 μl of infected cell suspension were inoculated into each well of one of the plates (anti-viral), while 20 μl of uninfected cell suspension were added to each well of the second plate (cytotoxicity). The plates were then incubated for 7 days at 37° C. After incubation, 10 μl of 3-(4,5-dimethylthiazol-2-yl)-2,5-diphenyltetrazolium bromide (MTT) at 20 mg/ml was added to all wells and the plates incubated for a further 90 minutes at 37° C.
150 μl of 10% (v/v) alcoholic Triton X-100 was then added and the cells resuspended. After 15 minutes at room temperature, the plates were analyzed in a Multiskan MC reader at 405 nm. Conversion of yellow MMT to its formazan derivative is maximum in uninfected cells, and absent in untreated infected cells. The optical density values for the cytotoxicity controls and the antiviral test wells were graphically plotted and the dose of compounds required to inhibit the conversion of MMT to 50% of the untreated uninfected controls was calculated. In this way, both the 50% cytotoxic dose (CD 50%) and the 50% anti-viral dose (ID 50%) can be calculated.

Jurkat = test: Cell culture inhibitory dose (CCID50) in Jurkat; details: cell counting, trypan blue exclusion, 7 days post drug treatment
Protocol: as §5, §6

MT-4 = test: Cell culture inhibitory dose (CCID50) in MT-4; details: cell counting, trypan blue exclusion, 7 days post drug treatment
Protocol: as §5, §6

CBMCs = test: Cell culture inhibitory dose (CCID50) in CBMCs; details: cell counting, trypan blue exclusion, 7 days post drug treatment
Protocol: as §5, §6

H9 = test: Cell culture inhibitory dose (CCID50) in H9; details: cell counting, trypan blue exclusion, 7 days post drug treatment
Protocol: as §5, §6

U937 = test: Cell culture inhibitory dose (CCID50) in U937; details: cell counting, trypan blue exclusion, 7 days post drug treatment
Protocol: as §5, §6

[3] = system: 2.2.15 cells (Hep G2 cells transfected with human hepatitis B virus genomic DNA); test: Cytotoxicity (CD50) reported with HBV assay; details: HBV table
Protocol: (§8) The method used for this test is described in detail in Korba et al., Antiviral research 15, 217-228 (1992) which is shortly described as follows: Hep G2 cells transfected with human hepatitis B virus genomic DNA (2.2.15 cells) were grown and maintained in RPMI-1640 culture medium containing %5 foetal bovine serum, 2 mM glutamine and 50 μg/ml gentamicin sulphate, and checked routinely for G418 resistance. Cultures of 2.2.15 cells were grown to confluence in 24 well tissue culture plates and maintained for 2 to 3 days in that condition prior to drug treatment.

MT-4 cells = test: Formazan (MTT) assay, drug-induced cytotoxicity in uninfected MT-4 cells; details: human, 7 days
Protocol: as §7, with “A suspension of cells (approximately 10^6 cells/ml) in RPMI 1640 growth medium was infected with HIV-1 strain RF at a M.O.I. of 10^−3 infectious units/cell.” left out
150 μl of 10% (v/v) alcoholic Triton X-100 was then added and the cells resuspended. After 15 minutes at room temperature, the plates were analyzed in a Multiskan MC reader at 405 nm. […] The optical density values for the cytotoxicity controls and the antiviral test wells were graphically plotted and the dose of compounds required to inhibit the conversion of MMT to 50% of the untreated uninfected controls was calculated.

human hepatitis B virus = test: Inhibition of human hepatitis B virus in 2.2.15 cells, extracellular HBV DNA; details: 10 day treatment
Protocol: Inhibition of Human Hepatitis B Virus.
as §8
Drugs were dissolved in sterile water or sterile 50% DMSO in water at concentrations 100-fold higher than the higher test concentration. These solutions were diluted as needed in culture medium.
The culture medium on the confluent cells was changed 24 hours prior to exposure to test compounds. During the 10 day treatment, the culture medium was changed daily. After 10 days of the treatment, the culture medium was collected and frozen at −70° C. for HBV DNA analysis. […]
A purified 3.2 kb EcoR1 HBV DNA fragment was labeled with [^32p]dCTP by nick translation and used as a probe to detect HBV DNA on the dot-blot by DNA hybridization. After washing, the hybridized blot was dried and ^32p was quantified using an Ambis beta scanner.

[4] = system: cord blood mononuclear cells (CBM); test: Cytotoxicity (CD50) reported with CBM assay
Protocol: Assays on cord blood mononuclear cells were done substantially as described in Gu et al., J. Virol.
as §1, with “The calculation of IC50 was determined on the basis of RT levels in culture fluids as described in Gao et al., (1992), J. Virol.” left out

[5] = Human immunodeficiency virus 1, read-out: IC50 HXB2D-65 K→R
[6] = Human immunodeficiency virus 1, read-out: IC50 HXB2D-184 M→V
[7] = Human immunodeficiency virus 1, read-out: IC50 HXB2D

Nc1ccn([C@@H]2CS[C@H](CO)O2)c(=O)n1 [3TC ™, reference compound]
IC50 (HIV-1 IIIB): 10 nM | IC50 ([1]; CBMCs, ddC resistance mutation, read-out: IC50 HXB2D-65 K→R): 125 nM | IC50 ([2]; CBMCs, 3TC™ and FTC resistance mutation, read-out: IC50 HXB2D-184 M→V): 42500 nM | IC50 (HIV-1 HXB2D; CBMCs, constructed virus HXB2D, read-out: IC50 HXB2D): 80 nM

Cc1cn([C@H]2C[C@H](N=[N+]=[N-])[C@@H](CO)O2)c(=O)[nH]c1=O [AZT, 3′-azido-3′-deoxythymidine, reference compound]
CCID50 CEM (CEM): 500 µM | IC50 (HIV-1 (HTLV-IIIB)): < 0.002 µg/mL | IC50 (HIV-1 IIIB; Human immunodeficiency virus 1): 2 nM | ID50 CEM (HTLV-IIIb): 0.01 µg/mL (≈ 0.0374 µM) | ID50 H9 (HTLV-IIIb): 0.07 µg/mL (≈ 0.262 µM) | ID50 Jurkat (HTLV-IIIb): 0.01 µg/mL (≈ 0.0374 µM) | ID50 MT-4 (HTLV-IIIb): 0.005 µg/mL (≈ 0.0187 µM) | ID50 U937 (HTLV-IIIb): 0.04 µg/mL (≈ 0.15 µM) | IC50 [1, 5]: 1 nM | IC50 (HIV-1 strain RF): 0.01 µg/mL (≈ 0.0374 µM) | CCID50 Jurkat (Jurkat): >500 µM | IC50 [2, 6]: 1 nM | IC50 (HIV-1 HXB2D; [7]): 2 nM | CCID50 MT-4 (MT-4): 110 µM | CCID50 CBMCs (CBMCs): 45 µM | CCID50 H9 (H9): 200 µM | CCID50 U937 (U937): 110 µM

Nc1ccn(C2COC(CO)S2)c(=O)n1 (stereo not drawn) [BCH-270, Cis- and Trans-2-hydroxymethyl-4-(cytosin-1′-yl)-1,3-oxathiolane]
CD50 (HBV) [3]: >10 µg/mL | IC50 (HIV-1 (HTLV-IIIB)): 0.03 µg/mL (≈ 0.131 µM) | CD50 (50% cytotoxic dose) (MT-4 cells): >100 µg/mL | ID50 (HBV) (human hepatitis B virus): 7.5 µg/mL (≈ 32.7 µM) | IC50 (HIV-1 strain RF): 4 µg/mL (≈ 17.4 µM) | CD50 [4]: >23 µg/mL

Nc1ccn([C@H]2CO[C@@H](CO)S2)c(=O)n1 [Compound #1, 2R-hydroxymethyl-4R-(cytosin-1′-yl)-1,3-oxathiolane]
CCID50 CEM (CEM): >500 µM | IC50 (HIV-1 (HTLV-IIIB)): 0.05 to 1.22 µg/mL (≈ 0.218 to 5.32 µM) | IC50 (HIV-1 IIIB; Human immunodeficiency virus 1): 220 nM | ID50 CEM (HTLV-IIIb): 0.2 µg/mL (≈ 0.872 µM) | ID50 H9 (HTLV-IIIb): 0.3 µg/mL (≈ 1.31 µM) | ID50 Jurkat (HTLV-IIIb): 3.0 µg/mL (≈ 13.1 µM) | ID50 MT-4 (HTLV-IIIb): 2.8 µg/mL (≈ 12.2 µM) | ID50 U937 (HTLV-IIIb): 0.4 µg/mL (≈ 1.74 µM) | CD50 (50% cytotoxic dose) (MT-4 cells): >100 µg/mL | IC50 [1, 5]: 2500 nM | IC50 (HIV-1 strain RF): 13 µg/mL (≈ 56.7 µM) | CCID50 Jurkat (Jurkat): 450 µM | IC50 [2, 6]: 530 nM | IC50 (HIV-1 HXB2D; [7]): 1000 nM | CCID50 MT-4 (MT-4): >500 µM | CCID50 CBMCs (CBMCs): >500 µM | CCID50 H9 (H9): >500 µM | CCID50 U937 (U937): >500 µM | CD50 [4]: >23 µg/mL
